Measurements from ChEMBL document CHEMBL5727895, “Nitrogen-containing heteroaryl compound and pharmaceutical use thereof” (2020).
pIC50: −log10 of the molar value.

Assay: Evaluation of GLUT9 Inhibitory Activity: Uricase/Hyper transiently-transfected human GLUT9 stably expressing cells or mock cells (blank) were seeded in a 96 well plate (Corning) at 1.6×10^5 cells/well, and cultured overnight at 37° C., 5% CO2. D-MEM/high glucose (Wako Pure Chemical Industries, Ltd.) containing 10% Fetal Bovine Serum (Lifetechnology) and 100 units/ml penicillin/100 μg/ml streptomycin (GIBCO) was used as a medium. High K− buffer (129.8 mM KCl, 1.2 mM KH2PO4, 1.2 mM MgSO4.7H2O, 1.3 mM CaCl2. 2H2O, 25 mM HEPES, pH 7.4 with 1 M Tris) and the medium were mixed in equal amount to prepare Assay Buffer. The medium in each well was removed, and the test compound solution (final 1% DMSO) diluted with Assay Buffer was added thereto at 50 μl/well, and the mixture was left stand at room temperature for 30 to 60 min. For the solvent control and blank, Assay Buffer containing DMSO alone was added at 50 μl/well, and the mixture was left stand at room temperature for 30 to 60 min. In addition, uric acid solution (containing [14C]uric acid as a tracer) diluted with Assay Buffer was added to each well at 15 μl/well (final 300 μM uric acid), and the uptake reaction was performed at room temperature for 6 min. After the completion of the reaction, the cells were washed three times with ice-cooled Wash Buffer (Hank's Balanced Salt Solution containing 0.01% Bovine Serum Albumin) at 150 μl/well, and 0.1N aqueous NaOH solution was added thereto at 25 μl/well to dissolve the cell. MicroScint-20 (Perkin-Elmer) was added thereto at 150 μl/well, the plate was shaked, and CPM of [14C] was measured by TopCount NXT (Perkin-Elmer).Data was obtained by deducting average of CPM in blank well from average of CPM in each treated well. The inhibitory rate of the test compound in each concentration was calculated from the following formula: [(A−B)/A]×100, A is data of solvent control, B is data of test compound treatment.

| SMILES | pIC50 |
| --- | --- |
| COc1ccc(-c2ncc(CC3CCC3)cc2-c2ccc(C(=O)O)cc2)cc1 | 6.72 |
| CCCCc1cnc(-c2cc(F)c(OC)c(F)c2)c(-c2ccc(C(=O)O)cc2)c1 | 7.24 |
| CCCCCc1cnc(-c2ccc(OC)cc2)c(-c2ccc(C(=O)O)cc2)c1 | 7.30 |
| CCCc1cnc(-c2cc(F)c(OC)c(F)c2)c(-c2ccc(C(=O)O)cc2)c1 | 7.14 |
| COc1ccc(-c2ncc(CC3CCCC3)cc2-c2ccc(C(=O)O)cc2)cc1 | 6.07 |
| CCCCc1cnc(-c2ccc(OC)cc2)c(-c2ccc(C(=O)O)cc2)n1 | 6.85 |
| CCCCc1cnc(-c2ccc(OC)c(F)c2)c(-c2ccc(C(=O)O)cc2)c1 | 7.05 |
| COCCCCc1cnc(-c2ccc(C(F)(F)F)cc2)c(-c2ccc(C(=O)O)cc2)n1 | 6.80 |
| CCCCc1cnc(-c2ccc(OC)cc2)c(-c2ccc(C(=O)O)cc2)c1F | 7.08 |
| COCCCc1cnc(-c2ccc(OC)cc2)c(-c2ccc(CCC(=O)O)cc2)n1 | 7.04 |
| CCCCc1cnc(-c2ccc(CC)c(C)c2)c(-c2ccc(C(=O)O)cc2)n1 | 6.82 |
| CCCCc1cnc(-c2ccc(C)cc2)c(-c2ccc(C(=O)O)cc2)c1 | 6.47 |
| CCCc1cnc(-c2ccc(OC)cc2)c(-c2ccc(C(=O)O)cc2)c1 | 7.05 |
